Laboratory results as given in a melting point compilation (Tetko et al.; mined from patent text by program, amines drawn as free bases though some values may be those of a salt).

Row | Structure (SMILES) | melting point [°C]
1 | Cc1[nH]c2ccc(OCCCCBr)cc2c1C | 119 to 120
2 | Cc1cc(=O)oc2c(C)c(O)c([N+](=O)[O-])cc12 | 230 to 232
3 | Cc1oc(-c2ccccc2)nc1COc1ccc(/C=C/CO)cc1C(F)(F)F | 152 to 153
4 | OCC1OC(n2cnc3c(NCC(c4ccc(Cl)cc4)c4ccc(Cl)cc4)ncnc32)C(O)C1O (centres undefined) | 95 to 120
5 | CNC(=O)C#Cc1ccccc1C | 52 to 55
6 | CC(C)CCOc1ccc(C(=O)C(O)O)cc1 | 80 to 85
7 | COCc1nc(C(=O)OC)c(C(=O)OC)[nH]1 | 93 to 95
8 | CC(=O)OC1CCC2(C)C(=CCC3C2CCC2(C)C(n4cnc5ccccc54)=C(C=O)CC32)C1 (centres undefined) | 227 to 230
9 | COC(=O)c1c(O)c(-c2ccccc2)nn1C | 88 to 90
10 | CCOC(=O)C1CCCN1C(=O)c1cc2c(cc1[N+](=O)[O-])OCO2 (centres undefined) | 94
11 | COc1ccc(-c2[nH]cnc2-c2cc(OC)c(O)c(OC)c2)cc1F | 125 to 127
12 | CSC1COc2cc(NS(C)(=O)=O)c(Oc3ccccc3)cc2C1=O (centres undefined) | 126 to 128
13 | O=C(Nc1ccc(Cl)cc1)NS(=O)(=O)c1ccc2c(c1)OCCO2 | 191
14 | N#Cc1ccc(N)cc1Sc1ccccc1 | 69 to 71
15 | COc1cccn2nc(S(=O)(=O)Nc3c(F)cccc3F)nc12 | 254 to 255
16 | CC(C)C(NC(=O)OCc1ccccn1)C(=O)NC(Cc1ccccc1)C(O)C(O)C(Cc1ccccc1)NC(=O)OC(C)(C)C (centres undefined) | 202 to 204
17 | Nc1ccc(-c2coc3cc(O)c(O)cc3c2=O)cc1 | 305 to 306
18 | CCCN(C)C(=O)N(C)C(=O)Nc1ccccc1 | 63 to 64
19 | COc1cc2oc(=O)c(CCO)c(C)c2cc1OC(C)C | 110 to 112
20 | Cn1nc(NC(=O)c2ccccc2)c2c(=O)n3c(nc21)SCC3 | 271 to 272
21 | O=C1OC(=O)c2c(Cl)c(Sc3ccccc3)c(Cl)c(Cl)c21 | 162 to 164
22 | Cc1cc(-c2ccc(OC(F)(F)F)cc2)ccc1C1COC(c2c(F)cccc2F)=N1 (centres undefined) | 78.5 to 79
23 | Cc1ccc(OC(=O)CCCC(=O)OOC(C)(C)C)cc1 | 50 to 55

Row | Structure (SMILES) | melting point [°C]
24 | CC(C)(C)OC(=O)ON=C(c1ccccc1)c1ccccc1 | 126 to 133
25 | COc1cc2ccc(-c3cc(C(=O)O)cs3)cc2cc1C12CC3CC(CC(C3)C1)C2 | 314 to 316
26 | Cc1cc(-c2c(-c3ccc(F)cc3)nn3cccnc23)ccn1 | 164 to 166
27 | N#CCN1C(=O)COc2cc(F)ccc21 | 111 to 113
28 | CC(=O)c1cc(C#N)c(=O)[nH]c1C=CN(C)C | 267 to 270
29 | CC(=O)ON=C1Cc2ccccc2N(C(N)=O)c2ccccc21 | 176 to 177
30 | CC(C)(C)OC(=O)NC(Cc1ccc([N+](=O)[O-])cc1)C(=O)O (centres undefined) | 105 to 107
31 | O=C1Nc2ccsc2C(=O)N2CC[C@@H]12 | 274
32 | Cc1ccccc1-c1cc(N2CCN(C(=O)CO)CC2)ncc1C(=O)N(C)Cc1cc(C(F)(F)F)cc(C(F)(F)F)c1 | 91 to 93
33 | COc1ccc2c(c1)CCC(n1cc[nH]c1=S)C2 (centres undefined) | 226 to 227
34 | C=Cc1ccc(ON2C(=O)c3ccccc3C2=O)cc1 | 129 to 131
35 | Cc1c(SCCCSc2nc3ccccc3[nH]2)ccnc1CSc1ccncc1 | 128 to 129
36 | COc1cc2sc(C(N)=O)cc2c(Cl)c1OC | 180 to 182
37 | CC(=O)Nc1ccc(Br)c2c1CN(C(C)=O)CC2 | 127 to 130
38 | Oc1cnccc1N=CN1CCCCCC1 | 117 to 118
39 | C[C@H](NC(=O)OC(C)(C)C)C(=O)N[C@H](CCC(=O)O)C(N)=O | 98
40 | CSc1ccc(C2=C(c3cccc(F)c3)C(=O)C(C)(C)O2)cc1 | 106
41 | COc1cc(NC(N)=S)cc(OC)c1OC | 203 to 205
42 | Cc1cc(N)cnc1-c1ccccc1 | 93 to 98
43 | Cc1cc(C)c2[nH]c(C(=O)O)cc2c1 | 254 to 256
44 | CCCc1c(OCCOCCOc2c(C(C)=O)ccc(OCC(=O)O)c2CCC)ccc(C(C)=O)c1O | 96 to 99
45 | CC(C)c1ccc(C2(OC(=O)N(C)C)C(=O)c3ccccc3C2=O)c(O)c1 | 114 to 118
46 | CC(C)C(=O)CCC(C)C1CCC2C3C=CC4=CC(=O)C5OC5C4(C)C3CCC12C (centres undefined) | 150 to 152

Row | Structure (SMILES) | melting point [°C]
47 | CC1(C)CCc2cc(O)c(O)cc2C1=O | 163 to 165
48 | CCCCNC(=O)Oc1cccc(NC(=O)CC(C)(OC)OC)c1 | 114
49 | Nc1nc(=O)n(C(=O)Oc2ccccc2)cc1F | 175 to 180
50 | O=C(O)CCSSc1ccccc1 | 58
51 | CC(C)(C)OC(=O)N1CCC(c2ccc(COc3ccc([N+](=O)[O-])cc3)nc2)CC1 | 149 to 150
52 | Cc1cc(O)n2nc(S(=O)(=O)O)nc2n1 | > 300
53 | CCOC(=O)c1cc(C=O)c2ccccn2c1=O | 179 to 181
54 | NC(=O)N1CCN(CC(O)COc2ccc(O)cc2)CC1 (centres undefined) | 198 to 201
55 | COC(=O)C1CCC2C3CCC4CC(O)CCC4(C)C3C(NC3CCCC3)CC12C (centres undefined) | 143 to 145
56 | CCn1c(C)c(C(C)=O)c(N)c1-c1ccccc1 | 107 to 108
57 | COc1ccccc1C1(c2ccccc2OC)CC1 | 146 to 149
58 | C#CCOc1ccc2c(C)cc(=O)oc2c1C(=O)C=Cc1ccc(F)cc1 | 185 to 186
59 | Cc1ccc(S(=O)(=O)c2ccc(N3CCN(C)CC3)cc2N)cc1 | 148 to 151
60 | COC(=O)c1sc(OC)cc1OP(=O)(OC)OC | 35
61 | CN(C)S(=O)(=O)c1ccc(C(F)(F)F)cc1N | 65 to 70
62 | CC1=C(c2ccc(F)c(F)c2)C(=NO)CC1 | 155 to 156
63 | CN1CCn2nc(Nc3cc(Cl)nn(COCC[Si](C)(C)C)c3=O)cc2C1 | 68 to 69
64 | CSC(C(=O)c1nsc(NC=O)n1)S(C)=O (centres undefined) | 130 to 132
65 | O=S(=O)(Nc1cc(Cl)c(Oc2nc3ccc(Cl)cc3s2)c(Cl)c1)c1ccc(C(F)(F)F)cc1Cl | 82 to 84
66 | CCOC(=O)N1C(=O)NC(C)=C(C(=O)OC)C1c1cccc(Cl)c1Cl (centres undefined) | 159 to 160
67 | O=S(=O)(Nc1cc(-c2ncc(C(F)(F)F)cc2Cl)ccc1Cl)c1ccc(Cl)cc1 | 156 to 157

The remaining lines, values ahead:

Row | melting point [°C] | Structure (SMILES)
68 | 214 | Cn1cc(C(=O)c2cccc(Cl)c2)cc1C(=O)O
69 | 111 to 112 | COC(=O)c1c(CC(C)C)nc2ccc(Cl)cc2c1-c1ccccc1
70 | 226 to 228 | Cc1cc(Cl)nn2c(-c3ccnc4c3ccn4S(=O)(=O)c3ccccc3)c(-c3ccc(F)cc3)nc12
71 | 267 to 269 | O=c1[nH]cnc2cc(OCc3ccccc3)ccc12
72 | 89 to 90 | Nc1sc2c(c1C(=O)c1ccc(Br)cc1)CCN(C(=O)Nc1ccccc1)C2
73 | 196 to 198 | Cc1nc(-c2ccc(F)cc2)c(COc2ccc(-c3nc4cc(C(=O)O)ccc4n3C3CCCCC3)cc2)s1
74 | 280 to 282 | Cc1c(-c2ccc3c(c2)NC(=O)CO3)nc2ccccn12
75 | 217 | CC(C)(C)C1=NN(c2ccc(C(=O)O)cc2)C(c2ccc(Cl)c(Cl)c2)C1 (centres undefined)
76 | 134 to 140 | COc1ccc(S(=O)(=O)n2c(CCCC(=O)O)cc3nc(Cl)ccc32)c(C)c1
77 | 202 to 204 | COC(=O)c1ccc(-c2c(CC(=O)Nc3ccc(F)cc3C(F)(F)F)c(=O)oc3cc(Cl)c(C)cc23)cc1
78 | > 250 | O=c1[nH]c2cc(F)c(F)cc2c(=O)n1OCc1ccccc1
79 | 202 to 206 | CN(Cc1ccc(-c2ccc(OCC#N)c(Br)c2)cc1)C(=O)c1cn(C)c2ccccc12
80 | 175 to 180 | CC(C)(C)OC(=O)CC(NC(=O)Nc1cccc(C(=O)O)c1)C(=O)Nc1ccccc1C(=O)c1ccccc1 (centres undefined)
81 | 258 | COc1cccc(CNC(=O)c2nc3sc(C(N)=O)c(C)c3c(=O)[nH]2)c1
82 | 102 to 106 | CS(=O)(=O)Nc1ccc(NC(=O)CN2CCC(Cc3ccccc3)CC2)cc1
83 | 105 to 120 | CC(C)(C)c1ccc(S(=O)(=O)N2c3ccccc3C[C@H]2C(=O)NCc2ccc(C(=O)O)cc2)cc1

Row | melting point [°C] | Structure (SMILES)
84 | 167 to 168 | O=C(Nc1ccccc1)c1nc(-c2ccc(Cl)cc2Cl)c(-c2ccc(Cl)cc2)s1
85 | 133 to 135 | Cc1ccc(CC2CCN(C(=O)C(=O)Nc3ccc4[nH]c(=O)oc4c3)CC2)cc1
86 | 257 to 259 | COc1ccc(-c2csc(Nc3ccc4ccccc4n3)n2)cc1OC
87 | 173 to 174 | O=c1c2cc(Cl)ccc2nc2n1CCN2Cc1ccccc1Cl
88 | 158 | COc1ccc(S(=O)(=O)N(CC(N)=O)c2ccc(Cl)cc2C(O)c2ccccc2Cl)c(OC)c1 (centres undefined)
89 | 160 to 162 | CCOc1cc(CCNC(=O)Cn2c(C#N)ccc2-c2ccc3c(c2)C(C)(C)OC(=O)N3)ccc1OC
90 | 172 to 174 | COc1ccc2c(c1)c(CCC(=O)O)cn2S(=O)(=O)c1ccc(C)cc1
91 | 196 to 198 | O=C(NCc1ccn(-c2cc3nc(C(=O)O)c(=O)[nH]c3cc2Cl)c1)Nc1cccc2ccccc12
92 | 114 to 115 | COC(=O)N[C@H](C(=O)N[C@@H](Cc1ccccc1)[C@@H](O)CN(Cc1ccc(-c2cncs2)cc1)NC(=O)OC(C)(C)C)C(C)C
93 | 263 to 265 | CCCCc1ccc(-c2csc(-c3ccc(C(=O)O)cc3)n2)cc1
94 | 239 to 240 | CC(=O)NCC1CN(c2ccc(N3CCN(c4nc5ccccc5s4)CC3)c(F)c2)C(=O)O1 (centres undefined)
95 | 211 | CCOc1cc(-c2cc(C(F)F)n3ncc(C(=O)Nc4cccc(S(C)(=O)=O)c4)c3n2)ccc1C(F)(F)F
96 | 78 to 85 | COC(=O)c1ccc(OCCNC(=O)C2Cc3ccccc3N2S(=O)(=O)c2ccc(-c3ccc(F)cc3Cl)cc2)nc1 (centres undefined)
97 | > 300 | O=C(O)c1cc2c(-c3ccncc3)nccc2[nH]c1=O
98 | 186 | Cc1cccc(NC(=O)NCC(=O)N(CC(=O)N2CCSC(C)(C)C2)c2ccccc2)c1
99 | 112 to 115 | O=S(=O)(NCCCCCCCCCCOc1ccc(-n2ccnc2)cc1)c1ccc2ccccc2c1
